Where two headings read alike, the source gives them in different places.
Columns and labels:
HEK293 cells = assay: Calcium mobilization induced by compound alone; format: cell-based; settings: Homo sapiens, HEK293; read-out: Calcium transient (% 50014);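 also: percent of response to 10 µM reference CCG-50014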
Experimental: (§1) Calcium Mobilization Experiments:
(§2) A stable cell line was developed based upon the HEK-293 Flp-In TREx cell line (Invitrogen, Carlsbad, Calif.) that stably express the muscarinic M3 receptor and have human RGS4 expression under doxycycline control. Cells were maintained in DMEM supplemented with 10% fetal bovine serum and Penicillin (100 units/ml)-Streptomycin (100 μg/ml) under 5% CO2 at 37° C. For experiments, cells were split into 96-well black, clear bottom, poly-D-lysine coated microtiter plates (Nunc, Cat. #152037) at a density of 20,000 cells/well in DMEM containing 10% fetal bovine serum and Penicillin (100 units/ml), Streptomycin (100 μg/ml). RGS4 expression was induced by supplementing the medium with 1 μg/mL doxycycline for 24-48 hours before experimentation. Cells were loaded with Fluo-4 No Wash dye in buffer for 30 minutes at 37° C. Compounds and/or carbachol were added to the wells and the fluorescence intensity was measured using a FlexStation (Molecular Devices, Sunnyvale, Calif.) plate reader. Data analysis was performed by calculating the area under the curve or maximal fluorescence intensity from a 120 second kinetic measurement.

RGS8 = RGS8 (Homo sapiens (Human), UniProt P57771); assay: FCPIA: Gαo binding to RGS8; settings: for RGS8 Hill Slope: Table 3; for IC50: read-out: RGS8 IC50
Source text: (§3) FCPIA Dose Response and Reversibility Experiments:

RGS4 [1] = target: RGS4 (Homo sapiens (Human), UniProt P49798); assay: FCPIA: Gαo binding to RGS4; settings: for RGS4 Hill Slope: Table 3
Source text: as §3

RGS4 [2] = assay: FCPIA: Gαo binding to RGS4; settings: for RGS4 Hill Slope: Table 3
Source text: as §3

M3 muscarinic receptor = assay: Carbachol-induced Ca2+ response, M3 cells without RGS4 dependence; format: cell-based; settings: 10 μM (FIG. 20) or as stated
Experimental: as §1, §2
as §2, with “Calcium signaling transients: A” for “A”, “units/ml)-Streptomycin” for “units/ml), Streptomycin”

papain = papain (Carica papaya (Papaya), UniProt P00784); assay: biochemical; format: biochemical
Source text: Papain (Sigma-Aldrich, St. Louis, Mo.) activity was monitored by the increase in fluorescence caused by the liberation of fluorescein from autoquenched fluorescein-conjugated casein (AnaSpec, San Jose, Calif.).

[3] = Heart rate and blood pressure in freely-moving rats; format: in vivo; settings: 0.1 mg/kg intraperitoneal vs saline
Source text: The muscarinic agonist carbachol can induce a transient bradycardic effect by activating M2 receptors in the SAN.

[4] = Table 3, duplex FCPIA, average of two experiments
[5] = Table 2, mean of two independent FCPIA experiments

Chain of RGS4 (Homo sapiens (Human), UniProt P49798) (P49798 whole entry, looked up): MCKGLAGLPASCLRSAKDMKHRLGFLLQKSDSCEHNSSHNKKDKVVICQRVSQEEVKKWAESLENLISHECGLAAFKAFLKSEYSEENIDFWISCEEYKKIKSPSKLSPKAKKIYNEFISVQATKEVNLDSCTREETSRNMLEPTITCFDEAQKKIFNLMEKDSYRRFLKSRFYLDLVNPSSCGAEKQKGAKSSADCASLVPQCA
Chain of RGS8 (P57771 other isoform, or with tags, fused parts or gaps): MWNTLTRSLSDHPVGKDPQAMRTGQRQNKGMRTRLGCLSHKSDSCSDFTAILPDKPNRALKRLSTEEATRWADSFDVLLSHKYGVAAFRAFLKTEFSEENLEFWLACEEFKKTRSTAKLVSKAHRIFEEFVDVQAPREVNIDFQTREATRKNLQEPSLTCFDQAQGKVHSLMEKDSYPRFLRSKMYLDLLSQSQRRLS
Chain of papain (P00784 134-345): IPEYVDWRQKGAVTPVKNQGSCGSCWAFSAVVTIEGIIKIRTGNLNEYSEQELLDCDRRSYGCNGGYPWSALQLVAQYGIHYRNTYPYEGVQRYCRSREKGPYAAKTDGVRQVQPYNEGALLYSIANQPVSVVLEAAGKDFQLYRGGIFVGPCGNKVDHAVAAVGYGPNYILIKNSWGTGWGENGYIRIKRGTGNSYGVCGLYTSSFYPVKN

| RGS8 Hill Slope (RGS8) | IC50 (RGS8; Table 6, FCPIA) | IC50 (RGS8; [4]) | RGS4 Hill Slope (RGS4 [2]) | Compound | Emax at 10 µM (HEK293 cells) | further results |
| --- | --- | --- | --- | --- | --- | --- |
| −0.94 | 7.5 µM |  |  | Cc1ccc(-n2sc(=O)n(Cc3ccccc3)c2=O)cc1 [CCG-203724, 2-p-tolyl-4-benzyl-1,2,4-thiadiazolidine-3,5-dione] | 177% | Fold Selectivity (R8/R4) (RGS4 [1]): 536; Fold Selectivity (RGS8 IC50/ RGS4 IC50) (RGS4 [1]): 536; Selectivity RGS4/ RGS8 (RGS4 [1]): 519; RGS4 Hill Slope (RGS4 [1]): −3.63; IC50 (RGS4 [1]; [4]): 0.014 µM |
| −1.06 |  | 7.6 µM |  | O=c1sn(-c2ccc(Cl)cc2)c(=O)n1Cc1ccc(F)cc1 [CCG-203727, 2-(4-chlorophenyl)-4-(4-fluorobenzyl)-1,2,4-thiadiazolidine-3,5-dione] | 158% | Fold Selectivity (R8/R4) (RGS4 [1]): 543; Fold Selectivity (RGS8 IC50/ RGS4 IC50) (RGS4 [1]): 543; Selectivity RGS4/ RGS8 (RGS4 [1]): 564; RGS4 Hill Slope (RGS4 [1]): −1.66; IC50 (RGS4 [1]; [4]): 0.014 µM |
| −0.44 | 98 µM |  |  | CCCCn1sc(=O)n(CC(C)C)c1=O [CCG-203764, 2-butyl-4-isobutyl-1,2,4-thiadiazolidine-3,5-dione] | 142% | Fold Selectivity (R8/R4) (RGS4 [1]): 2513; Fold Selectivity (RGS8 IC50/ RGS4 IC50) (RGS4 [1]): 2513; Selectivity RGS4/ RGS8 (RGS4 [1]): 2540; RGS4 Hill Slope (RGS4 [1]): −0.87; IC50 (RGS4 [1]; [4]): 0.039 µM |
|  |  |  |  | O=C1C=C(Br)C(=O)N1Cc1ccccc1 [CCG-203780] |  | IC50 (RGS8; [5]): > 100 µM; IC50 (RGS4 [1]; [5]): 32 µM |
| −0.73 |  | 21.3 µM |  | Cc1cccc(-n2sc(=O)n(Cc3ccccc3)c2=O)c1 [CCG-203785, 2-(3-methylphenyl)-4-benzyl-1,2,4-thiadiazolidine-3,5-dione] | 145% | Fold Selectivity (R8/R4) (RGS4 [1]): 561; Fold Selectivity (RGS8 IC50/ RGS4 IC50) (RGS4 [1]): 561; Selectivity RGS4/ RGS8 (RGS4 [1]): 558; RGS4 Hill Slope (RGS4 [1]): −1.13; IC50 (RGS4 [1]; [4]): 0.038 µM |
|  | 36.1 µM |  |  | CCn1sc(=O)n(CCOC)c1=O [CCG-203920, 2-ethyl-4-(2-methoxyethyl)-1,2,4-thiadiazolidine-3,5-dione] |  | IC50 (RGS4 [2]; Table 6, FCPIA, read-out: RGS4 IC50): 0.0543 µM; effect on carbachol-induced Ca2+ response (RGS-independent) (M3 muscarinic receptor): no effect |
|  |  |  |  | CCN1C(=O)C=CC1=O [N-ethyl maleimide, reference compound] |  | effect on RGS8 (RGS8; FCPIA): no effect; inhibition of papain by general cysteine alkylators (papain): no effect |
| −0.77 | 7.2 µM | 7.2 µM | −1.78 | COc1ccc(Cn2c(=O)sn(-c3ccccc3)c2=O)cc1 [S24, 2-phenyl-4-(4-methoxybenzyl)-1,2,4-thiadiazolidine-3,5-dione] | 18.6% |  |
| −0.73 | 9.9 µM | 9.9 µM | −3.26 | COc1ccc(Cn2c(=O)sn(-c3ccc(Cl)cc3)c2=O)cc1 [S25, 2-(4-chlorophenyl)-4-(4-methoxybenzyl)-1,2,4-thiadiazolidine-3,5-dione] | 84.6% |  |
| −0.81 | 17.6 µM | 17.6 µM | −1.27 | COc1ccc(Cn2c(=O)sn(-c3ccc(OC)cc3)c2=O)cc1 [S26, 2-(4-methoxyphenyl)-4-(4-methoxybenzyl)-1,2,4-thiadiazolidine-3,5-dione] | 54.9% |  |
| −1.50 | 36 µM | 36 µM | −1.04 | COc1ccc(Cn2c(=O)sn(-c3ccc(Cl)c(Cl)c3)c2=O)cc1 [S27, 2-(3,4-dichlorophenyl)-4-(4-methoxybenzyl)-1,2,4-thiadiazolidine-3,5-dione] | 63.4% |  |
| −0.64 | 92.9 µM | 92.9 µM | −2.42 | COc1ccc(Cn2c(=O)sn(Cc3ccc(C)cc3)c2=O)cc1 [S28, 2-(4-methylbenzyl)-4-(4-methoxybenzyl)-1,2,4-thiadiazolidine-3,5-dione] | 169% |  |
| −0.80 | 7.5 µM | 7.5 µM | −0.96 | O=c1sn(-c2ccccc2)c(=O)n1Cc1ccc(Cl)c(Cl)c1 [S29, 2-phenyl-4-(3,4-dichlorobenzyl)-1,2,4-thiadiazolidine-3,5-dione] | 47.6% |  |
| −0.76 | 16.7 µM | 16.7 µM | −1.31 | O=c1sn(-c2ccc(Cl)cc2)c(=O)n1Cc1ccc(Cl)c(Cl)c1 [S30, 2-(4-chlorophenyl)-4-(3,4-dichlorobenzyl)-1,2,4-thiadiazolidine-3,5-dione] | -0.1% |  |
| −0.64 | 5.9 µM | 5.9 µM | −0.86 | COc1ccc(-n2sc(=O)n(Cc3ccc(Cl)c(Cl)c3)c2=O)cc1 [S31, 2-(4-methoxyphenyl)-4-(3,4-dichlorobenzyl)-1,2,4-thiadiazolidine-3,5-dione] | 202% |  |
| −0.85 | 125 µM | 125 µM | −0.87 | O=c1sn(-c2ccc(Cl)c(Cl)c2)c(=O)n1Cc1ccc(Cl)c(Cl)c1 [S32, 2-(3,4-dichlorophenyl)-4-(3,4-dichlorobenzyl)-1,2,4-thiadiazolidine-3,5-dione] | 49.6% |  |
| −0.71 | 109 µM | 109 µM | −1.33 | Cc1ccc(Cn2sc(=O)n(Cc3ccc(Cl)c(Cl)c3)c2=O)cc1 [S33, 2-(4-methylbenzyl)-4-(3,4-dichlorobenzyl)-1,2,4-thiadiazolidine-3,5-dione] | 51.7% |  |
|  | > 100 µM | > 100 µM | −1.36 | Cc1ccc(-n2sc(=O)n(Cc3ccc(C(C)(C)C)cc3)c2=O)cc1 [S34, 2-p-tolyl-4-(4-t-butylbenzyl)-1,2,4-thiadiazolidine-3,5-dione] | 18.9% |  |
|  | > 100 µM | > 100 µM | −1.72 | CC(C)(C)c1ccc(Cn2c(=O)sn(-c3ccccc3)c2=O)cc1 [S35, 2-phenyl-4-(4-t-butylbenzyl)-1,2,4-thiadiazolidine-3,5-dione] | 14.4% |  |
|  | > 100 µM | > 100 µM | −1.70 | CC(C)(C)c1ccc(Cn2c(=O)sn(-c3ccc(C(C)(C)C)cc3)c2=O)cc1 [S36, 2-(4-t-butylphenyl)-4-(4-t-butylbenzyl)-1,2,4-thiadiazolidine-3,5-dione] | 14.8% |  |
|  | 144 µM |  |  | O=C1C=C(Br)C(=O)N1Cc1ccccc1 [S37, 1-benzyl-3-bromo-1H-pyrrole-2,5-dione] |  | IC50 (RGS4 [1]; Table 6, FCPIA): 32.9 µM |
|  |  |  |  | C[N+](C)(C)CCOC(N)=O [carbachol, reference compound] |  | heart rate after carbachol [3]: significant decrease in heart rate |
|  |  |  |  | NC(=O)CI [iodoacetamide, reference compound] |  | effect on Gα0 binding to the RGS proteins tested (RGS4 [1]; FCPIA): no effect; inhibition of papain by general cysteine alkylators (papain): dose-dependent |
